According to patent US11891386B2, “Indole compounds and their use” (ARIAGEN, INC., priority 2017, dated 2024):

Tests used:
[1] = system: CYP1A1 in human HepG2 cells; experiment: EROD assay (7-ethoxy-resorufin-O-deethylase), human HepG2 cells; assay type: cell-based; parameters: key to activity group based on EC50 values, in the order of increasing activity: (1) active; (2) more active; (3) most active; details: for EC50: EROD assay, 20 hours treatment; for EC50 / activity in the human EROD assay compared to ARI-001 / ARI-002, in words: human HepG2 cells; for activity group based on EC50 values, in the order of increasing activity: oxadiazole derivatives of ITE
Protocol: (§1) CYP1A1 induction is under the control of the AhR signaling pathway. This Example describes an in vitro assay (7-ethoxy-resorufin-O-deethylase (EROD) assay) that evaluated the AhR modulating activities of the indole compounds described herein. In this assay, the indole compounds were incubated with human HepG2 cells or mouse Hepal-6 cells. The activity of CYP1A1 in the cells was measured by the conversion of substrate 7-ethoxyresorufin, with the readout being a fluorescence signal associated with the conversion product. The EC50 values of the indole compounds as well as the maximum […] induced by them in the assay were determined.
(§2) Human HepG2 cells were obtained from Sigma Aldrich (Catalog 85011430-1VL). Mouse Hepal-6 cells also were obtained from Sigma Aldrich (Catalog 92110305-1V).
(§3) Human HepG2 and Mouse Hepal-6 cells were grown to 60-80% confluency in tissue culture flasks, lifted with non-enzymatic cell dissociation solution (cell stripper), seeded in a 384-well plate at 5,000 cells per well, treated with the test compounds, and incubated for 20 hours overnight at 37° C. The treatment medium was removed and a solution of substrate 7-ethoxyresorufin (ETX) was added to initiate the reaction. The plate was incubated at 37° C. for 30 minutes. The reaction was subsequently terminated by adding tempered methanol. Fluorescent emission was measured at 590 nm with excitation at 530 nm in a FLEXSTATION III instrument (Molecular Devices).

[2] = system: CYP1A1 in mouse Hepal-6 cells; experiment: EROD assay (7-ethoxy-resorufin-O-deethylase), mouse Hepa1-6 cells; assay type: cell-based; details: for EC50: EROD assay, 20 hours treatment
Protocol: as §1, §2, §3

human hepatocytes = experiment: Hepatocyte intrinsic clearance assay, human hepatocytes; assay type: in vitro ADME; details: for CLint (μL/min/10^6 ells) / EH (%) hepatic extraction ratio: Human Hepatocytes; for CLint (μL/min/10^6 ells): 1 μM test compound; for EH (%) hepatic extraction ratio: well stirred liver model, fu=1
Method in brief: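 Cryopreserved pooled male human or male CD-1 mouse hepatocytes (1×10^6 cells/mL final) incubated with 1 μM compound at 37° C, sampled from 0 to 120 min, quenched in acetonitrile and analysed by LC-MS in duplicate. t1/2 and CLint come from the ln(% remaining) vs time slope. EH comes from the well-stirred liver model with fu=1.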

Row | Compound | EC50 [1] | EC50 [2] | CLint (μL/min/10^6 ells) (human hepatocytes) | EH (%) hepatic extraction ratio (human hepatocytes) | EH lower as compared to ARI-002, in words (human hepatocytes; human hepatocytes) | times lower clearance as compared to ARI-002 (human hepatocytes; human hepatocytes) | times more active than ARI-001 ([1]; human EROD assay) | times more active than ARI-002 ([1]; human EROD assay) | activity group based on EC50 values, in the order of increasing activity ([1]; human EROD assay) | activity in the human EROD assay compared to ARI-001 / ARI-002, in words [1] | activity in the mouse EROD assay, in words [2] | clearance / metabolic profile, in words (human hepatocytes; human hepatocytes)
1 | CCC(=O)c1csc(C(=O)c2c[nH]c3ccc(F)cc23)n1 [ARI-087, 1-(2-(5-fluoro-1H-indole-3-carbonyl)thiazol-4-yl)propan-1-one] | 34.2 nM | 5.8 nM | 6.0 μL/min/10^6 ells | 43% | two times lower | 23 times | – | – | – | – | – | –
2 | COC(=O)c1csc(C(=O)c2c[nH]c3ccccc23)n1 [ARI-001, ITE] | 28.9 nM | 64 nM | 220.4 μL/min/10^6 ells | 91% | – | – | – | – | – | – | – | –
3 | Nc1nnc(-c2csc(C(=O)c3c[nH]c4c(F)cccc34)n2)o1 [ARI-118, (4-(5-amino-1,3,4-oxadiazol-2-yl)thiazol-2-yl)(7-fluoro-1H-indol-3-yl)methanone] | – | – | 0.7 μL/min/10^6 ells | 8.4% | – | – | about 930 times | about 13 times | most active | significantly more (about 4 to 900 times more) active than ARI-001 | most active among the tested oxadiazole compounds | low clearance
4 | NCc1nnc(-c2csc(C(=O)c3c[nH]c4c(F)cccc34)n2)o1 [ARI-145, (4-(5-(aminomethyl)-1,3,4-oxadiazol-2-yl)thiazol-2-yl)(7-fluoro-1H-indol-3-yl)methanone] | – | – | 4.1 μL/min/10^6 ells | 33% | – | – | – | – | more active | significantly more (about 4 to 900 times more) active than ARI-001 | most active among the tested oxadiazole compounds | –
5 | CNC(=O)c1csc(C(=O)c2c[nH]c3ccc(F)cc23)n1 [ARI-065, 2-(5-fluoro-1H-indole-3-carbonyl)-N-methylthiazole-4-carboxamide] | – | – | 7.6 μL/min/10^6 ells | 48% | – | – | – | – | – | less active | less active | lower clearance and EH value
6 | CCC(=O)c1csc(C(=O)c2c[nH]c3cccc(F)c23)n1 [ARI-142, 1-(2-(4-fluoro-1H-indole-3-carbonyl)thiazol-4-yl)propan-1-one] | 64.8 nM | 12.8 nM | 8.1 μL/min/10^6 ells | 50% | – | – | – | – | – | less active than ARI-002 | – | –
7 | CNC(=O)c1csc(C(=O)c2c[nH]c3ccccc23)n1 [ARI-004] | – | – | 40.2 μL/min/10^6 ells | 65% | – | – | – | – | – | less active | less active | –
